Values joined by “and” are separate entries in the source; they are usually repeats but may differ in a detail not shown here. Identical values can stand only once. Like-named read-outs stand apart in the source and are kept apart here.
How the values were obtained:
[1] = system: LPS-induced acute lung injury (ALI); test: Mouse model of LPS-induced ALI, BALF cell count and BALF protein; type: in vivo; details: dexamethasone 5 mg/kg IP at T=0 and 6, positive control in the experiments of the compound of that line; mean ± SEM
Procedure: LPS was instilled into the trachea of anesthetized mice. […] The efficacy endpoints were total cell counts and total protein in BALF. All studies were conducted using vehicle negative controls and dexamethasone (5 mg/kg IP at T=0 and 6) as a positive control. Data were analyzed by 1-way ANOVA followed by Tukey's multiple comparison test (GRAPHPAD PRISM® software, version 6.05). […] Reductions in BALF total protein were also observed. […]

[2] = Solubility of ARF6 prodrugs in various vehicles (Table 4); type: physicochemical
[3] = target: ARF6 (Homo sapiens, UniProt P62330); test: ARF6 inhibition, biochemical fluorometric nucleotide exchange assay
From the text: These ARF6 inhibitors were discovered using a high-throughput biochemical, fluorometric nucleotide exchange assay to screen 100,000 compounds from a commercially available compound library. Medicinal chemistry optimization efforts have also been conducted. In some embodiments, the clinical potential of the discovered small molecule ARF6 inhibitors can be limited by poor solubility. Accordingly, the synthesis and development of water soluble prodrugs of ARF6 inhibitors can be advantageous. […]

[4] = Solubility in water and PBS pH 7.4 (Tables 1 and 2); type: physicochemical
[5] = system: multidrug-resistant Pseudomonas aeruginosa (PA); test: Multidrug-resistant Pseudomonas aeruginosa mouse model of pneumonia; type: in vivo; details: NAV-AAR′ 38 and 64 mg/kg subcutaneous once daily for 6 days
Procedure: NAV-AAR′ is also active in a multidrug-resistant Pseudomonas aeruginosa (PA) mouse model of pneumonia. […] NAV-AAR′ was administered by subcutaneous injection once daily for 6 days. The antibiotic meropenem was ineffective against MDR PA in this model.

[6] = 20 mM Na citrate buffer, pH 3.1, aqueous buffer, kinetic from dmso stock, diluted from 10 mM solution in DMSO, read-out: Solubility (μM) 20 mM Na Citrate, pH 3.1
[7] = water, kinetic from dmso stock, diluted from 10 mM solution in DMSO, read-out: Solubility (μM) H2O
[8] = Table 2, water, read-out: Solubility Water
[9] = Table 1, water, read-out: Solubility Water
[10] = aqueous buffer, Table 1, PBS pH 7.4, read-out: Solubility PBS pH 7.4

Chain of ARF6 (P62330 whole entry, species assumed): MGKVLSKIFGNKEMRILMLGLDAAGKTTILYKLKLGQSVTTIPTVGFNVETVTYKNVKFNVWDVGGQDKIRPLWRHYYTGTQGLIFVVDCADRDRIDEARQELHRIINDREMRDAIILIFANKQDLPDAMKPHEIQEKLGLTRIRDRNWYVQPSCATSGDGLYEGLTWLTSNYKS

IC50 ([3]; Table 1, read-out: ARF6 IC50) | solubility [4, 9] | solubility [4, 10] | SMILES | other results
– | – | – | C[C@@H]1C[C@H]2[C@@H]3CCC4=CC(=O)C=C[C@]4(C)[C@@]3(F)[C@@H](O)C[C@]2(C)[C@@]1(O)C(=O)CO [DEX, dexamethasone, reference compound] | percent reduction in LPS-induced increase in BALF cell count, DEX [1]: 64 ± 9% and 74 ± 5% and 63 ± 4% and 59 ± 5% and 70 ± 7%
– | – | – | NCC(=O)Oc1cc([N+](=O)[O-])ccc1-c1cc(=O)[nH]c2c(-c3ccc(Cl)cc3)c(Cc3ccccc3)nn12.O=C(O)C(F)(F)F [Example III, [2-[2-Benzyl-3-(4-chlorophenyl)-5-oxo-4H-pyrazolo[1,5-a]pyrimidin-7-yl]-5-nitro-phenyl] 2-aminoacetate trifluoroacetate] | solubility [2, 6]: 325 µM; solubility [2, 7]: 375 µM
– | – | – | C[C@H](N)C(=O)Oc1cc([N+](=O)[O-])ccc1-c1cc(=O)[nH]c2c(-c3ccc(Cl)cc3)c(Cc3ccccc3)nn12.O=C(O)C(F)(F)F [Example V, [2-[2-Benzyl-3-(4-chlorophenyl)-5-oxo-4H-pyrazolo[1,5-a]pyrimidin-7-yl]-5-nitro-phenyl] (2S)-2-aminopropanoate trifluoroacetate] | IC50 ([3]; Table 4, read-out: ARF6 inhibition IC50): 1.9 µM; solubility [2, 6]: 160 µM; solubility ([2]; 0.1% Tween 80 in D5W, aqueous with cosolvent or surfactant or cyclodextrin, kinetic from dmso stock, diluted from 10 mM solution in DMSO, read-out: Solubility (μM) 0.1% Tween 80 in D5W): 5.4 µM; solubility ([2]; DPBS, pH 7.4, aqueous buffer, kinetic from dmso stock, diluted from 10 mM solution in DMSO, read-out: Solubility (μM) DPBS, pH 7.4): < 1 µM; solubility ([2]; saline or isotonic, thermodynamic from solid, D5W, prepared from powder, read-out: Solubility (μM) D5W Prepared from powder): 20 µM; solubility [2, 7]: 150 µM
– | – | – | Cc1ccc(-c2c[nH]c3c(-c4ccc(Cl)cc4)c(Cc4ccccc4)nn3c2=O)c(O)c1 [NAV-AAC′] | IC50 ([3]; Table 2, read-out: ARF6 IC50): 3.3 µM; solubility [4, 8]: < 1 mg/mL
2.9 µM | 300 µM | < 1 µM | N#Cc1ccc(-c2cc(=O)[nH]c3c(-c4ccc(Cl)cc4)c(Cc4ccccc4)nn23)c(OC(=O)[C@@H](N)CCCCN)c1 [NAV-AAD] | –
3.3 µM | – | – | NCCCC[C@H](N)C(=O)Oc1cc(F)ccc1-c1cc(=O)[nH]c2c(-c3ccc(Cl)cc3)c(Cc3ccccc3)nn12 [NAV-AAE] | –
> 50 µM | – | – | Cc1ccc(-c2cc(=O)[nH]c3c(-c4ccc(Cl)cc4)c(Cc4ccccc4)nn23)c(OC(=O)[C@@H](N)CCCCN)c1 [NAV-AAF] | –
– | – | – | O=c1c(-c2ccc(F)cc2OP(=O)([O-])[O-])c[nH]c2c(-c3ccc(Cl)cc3)c(Cc3ccccc3)nn12.[Na+].[Na+] [NAV-AAP′] | IC50 ([3]; Table 2, read-out: ARF6 IC50): 9.2 µM; solubility [4, 8]: > 50 mg/mL
1.9 µM | > 500 µM | 19 µM | N#Cc1ccc(-c2cc(=O)[nH]c3c(-c4ccc(Cl)c(Cl)c4)c(C(F)(F)F)nn23)c(OC(=O)[C@@H](N)CCCCN)c1 [NAV-AA] | –
2.4 µM | 500 µM | < 1 µM | N#Cc1ccc(-c2cc(=O)[nH]c3c(-c4ccc(Cl)c(Cl)c4)c(C4CC4)nn23)c(OC(=O)[C@@H](N)CCCCN)c1 [NAV-AB] | –
2.4 µM | < 1 µM | < 1 µM | O=c1cc(-c2ccc(F)cc2O)n2nc(Cc3ccccc3)c(-c3ccc(Cl)cc3)c2[nH]1 [NAV-AD] | –
1.9 µM | 1.1 µM | < 1 µM | O=c1cc(-c2ccc(F)cc2O)n2nc(C3CC3)c(-c3ccc(Cl)c(Cl)c3)c2[nH]1 [NAV-AF] | –
26 µM | > 500 µM | 435 µM | NCCCC[C@H](N)C(=O)Oc1ccccc1-c1cc(=O)[nH]c2c(-c3ccc(Cl)c(Cl)c3)c(C(F)(F)F)nn12 [NAV-AG] | –
1.6 µM | < 1 µM | 30 µM | O=c1cc(-c2ccc(F)cc2O)n2nc(C(F)(F)F)c(-c3ccc(Cl)c(Cl)c3)c2[nH]1 [NAV-AW] | –
6.2 µM | 4.5 µM | 70 µM | O=c1cc(-c2ccc(F)cc2O)n2nc(C(F)(F)F)c(-c3ccc(Cl)cc3)c2[nH]1 [NAV-AY] | –
7.2 µM | 9.2 µM | 1.4 µM | O=c1cc(-c2ccccc2O)n2nc(Cc3ccccc3)c(-c3ccc(Cl)cc3)c2[nH]1 [NAV-C] | –
11 µM | < 1 µM | < 1 µM | O=c1cc(-c2ccc(Cl)cc2O)n2nc(Cc3ccccc3)c(-c3ccc(Cl)cc3)c2[nH]1 [NAV-D] | –
12 µM | < 1 µM | 68 µM | O=c1cc(-c2ccccc2O)n2nc(C(F)(F)F)c(C3CCCCC3)c2[nH]1 [NAV-E] | –
4.9 µM | < 1 µM | 21 µM | O=c1cc(-c2ccc(Cl)cc2O)n2nc(C(F)(F)F)c(C3CCCCC3)c2[nH]1 [NAV-F] | –

IC50 ([3]; Table 1, read-out: ARF6 IC50) | solubility [4, 9] | solubility [4, 10] | SMILES | other results
> 50 µM | 56 µM | 82 µM | O=c1cc(-c2ccccc2O)n2nc(CN3CCOCC3)c(-c3ccc(Cl)cc3)c2[nH]1 [NAV-G] | –
30 µM | 7 µM | 13 µM | O=c1cc(-c2ccc(Cl)cc2O)n2nc(CN3CCOCC3)c(-c3ccc(Cl)cc3)c2[nH]1 [NAV-H] | –
21 µM | 29 µM | 1.8 µM | O=c1cc(-c2ccccc2O)n2nc(C3CC3)c(-c3ccc(Cl)c(Cl)c3)c2[nH]1 [NAV-I] | –
12 µM | < 1 µM | < 1 µM | O=c1cc(-c2ccc(Cl)cc2O)n2nc(C3CC3)c(-c3ccc(Cl)c(Cl)c3)c2[nH]1 [NAV-J] | –
4.2 µM | < 1 µM | 43 µM | O=c1cc(-c2ccc(Cl)cc2O)n2nc(C(F)(F)F)c(-c3ccc(Cl)cc3)c2[nH]1 [NAV-K] | –
6.2 µM | < 1 µM | 20 µM | O=c1cc(-c2ccc([N+](=O)[O-])cc2O)n2nc(C3CC3)c(-c3ccc(Cl)c(Cl)c3)c2[nH]1 [NAV-L] | –
10 µM | 4 µM | 43 µM | O=c1cc(-c2ccccc2O)n2nc(C(F)(F)F)c(-c3ccc(Cl)cc3)c2[nH]1 [NAV-M] | –
2.8 µM | < 1 µM | 38 µM | O=c1cc(-c2ccccc2O)n2nc(C(F)(F)F)c(-c3ccc(Cl)c(Cl)c3)c2[nH]1 [NAV-O] | –
1.4 µM | 5.75 µM | 19.6 µM | N#Cc1ccc(-c2cc(=O)[nH]c3c(-c4ccc(Cl)c(Cl)c4)c(C(F)(F)F)nn23)c(O)c1 [NAV-P] | –
5.1 µM | < 1 µM | 11 µM | N#Cc1ccc(-c2cc(=O)[nH]c3c(-c4ccc(Cl)cc4)c(C(F)(F)F)nn23)c(O)c1 [NAV-Q] | –
1.9 µM | < 1 µM | 1.7 µM | N#Cc1ccc(-c2cc(=O)[nH]c3c(-c4ccc(Cl)cc4)c(Cc4ccccc4)nn23)c(O)c1 [NAV-R] | –
2 µM | 10.2 µM | 14 µM | N#Cc1ccc(-c2cc(=O)[nH]c3c(-c4ccc(Cl)c(Cl)c4)c(C4CC4)nn23)c(O)c1 [NAV-S] | –
2.3 µM | 13 µM | 11 µM | O=c1cc(-c2ccc(C(F)(F)F)cc2O)n2nc(C(F)(F)F)c(-c3ccc(Cl)c(Cl)c3)c2[nH]1 [NAV-T] | –
6.7 µM | 20 µM | 14 µM | O=c1cc(-c2ccc(C(F)(F)F)cc2O)n2nc(Cc3ccccc3)c(-c3ccc(Cl)cc3)c2[nH]1 [NAV-U] | –
3.2 µM | 30 µM | 6 µM | O=c1cc(-c2ccc(C(F)(F)F)cc2O)n2nc(C3CC3)c(-c3ccc(Cl)c(Cl)c3)c2[nH]1 [NAV-V] | –
30 µM | 438 µM | 144 µM | NCCCC[C@H](N)C(=O)Oc1ccccc1-c1cc(=O)[nH]c2c(-c3ccc(Cl)cc3)c(Cc3ccccc3)nn12 [NAV-Y] | –
4.25 µM | 450 µM | 22 µM | NCCCC[C@H](N)C(=O)Oc1cc(Cl)ccc1-c1cc(=O)[nH]c2c(-c3ccc(Cl)cc3)c(C(F)(F)F)nn12 [NAV-Z] | –
– | – | – | C[C@@H](O)[C@H]1C(=O)N2C(C(=O)O)=C(S[C@@H]3CN[C@H](C(=O)N(C)C)C3)[C@H](C)[C@H]12 [meropenem, reference compound] | survival in MDR PA pneumonia [5]: ineffective

SMILES | IC50 ([3]; Table 1, read-out: ARF6 IC50) | solubility [4, 9] | solubility [4, 10] | other results
O=c1cc(-c2ccc(F)cc2OP(=O)(O)O)n2nc(Cc3ccccc3)c(-c3ccc(Cl)cc3)c2[nH]1 [NAV-AAP] | 9.2 µM | – | – | –
Cc1ccc(-c2cc(=O)[nH]c3c(-c4ccc(Cl)cc4)c(Cc4ccccc4)nn23)c(OP(=O)(O)O)c1 [NAV-AAQ] | 4.6 µM | > 50 mg/mL | – | –
Cc1ccc(-c2cc(=O)[nH]c3c(-c4ccc(Cl)cc4)c(Cc4ccccc4)nn23)c(OP(=O)([O-])[O-])c1.[Na+].[Na+] [NAV-AAR] | – | > 50 mg/mL | – | –

From patent US11414442B2, “ARF6 inhibitors and related methods” (Navigen, Inc., priority 2017, dated 2022)
